{
  "source": "paper PMC7613620",
  "about": "“Reaction hijacking of tyrosine tRNA synthetase as a whole-of-life-cycle antimalarial strategy” (Science (New York, N.Y.), 2022)",
  "key": {"[1]": {"tested_on": "P. falciparum Dd2 PfYRSS234C mutant lines", "test": "72-h sensitivity of CRISPR-edited PfYRSS234C clones", "assay_type": "cell-based, Plasmodium falciparum", "settings": "for IC50: Plasmodium falciparum, DD2, 72 h, 72-h exposure", "method": "700 the drug plate. Lowest drug treatment and a lethal dose of chloroquine (200 nM) served as reference\n701 controls. Growth inhibition was analysed after 72 h using the Renilla-Glo(R) Luciferase Assay System (ref\n702 no E2750 Promega) and the GloMax® Discover Multimode Microplate Reader (Promega), and IC50 values\n703 were obtained from corrected dose-response curves using GraphPad Prism (version 8; GraphPad Software).\n705 Generation of PfYRSS234C transfectants\n706 CRISPR/Cas9 was used to generate parasites encoding the S234C mutation in exon 2 of PfYRS, as shown\n707 in Suppl Figure 6. Two guide RNAs (gRNA1: […] and gRNA2:\n708 […]) were selected using Benchling (benchling.com), and cloned into the\n709 pDC2-coCas9-gRNA plasmid essentially as described previously (58). A donor template of 645 bp,\n710 encompassing the majority of the 708 bp exon 2, was synthesized (ThermoFisher) and cloned into the\n711 AatII/EcoRI sites of both the pDC2-coCas9-gRNA1 and pDC2-coCas9-gRNA2 plasmids. In addition to\n712 the TCC>TGC (S234C) mutation, additional silent shield mutations were introduced to prevent gRNA-\n713 Cas9 complex binding, as shown in Suppl Figure 6. Ring-stage P. falciparum parasites (Dd2 strain) at 10%\n714 parasitemia (150 µL of packed cells) were transfected with 50 µg of plasmid DNA using a BioRad Gene\n715 Pulser II (310 V, 950 µF), and selected with 5 nM WR99210 (Jacobus Pharmaceuticals) for 8 days, after\n716 which culture was continued without drug pressure until transfectants were obtained. Clones of the\n717 PfYRSS234C mutant parasites were isolated by limiting dilution and verified by Sanger sequencing. […]\n729 Cam 3.II_Rev (25) trophozoite-infected RBCs (25-30 h p.i.) were incubated with inhibitor for 3 h at 10%\n730 hematocrit and 5% parasitemia. The RBC pellet was washed 3 x in PBS + cOmplete. Cells were centrifuged\n731 at 380 x g for 5 min and the pelleted cells lysed by resuspension in PBS + 0.05% saponin for 5 min on ice."}, "[2]": {"tested_on": "P. falciparum (Cam3.II-rev) schizont stage", "test": "3 h drug pulse viability assay", "assay_type": "cell-based, Plasmodium falciparum", "settings": "Plasmodium falciparum, 3 h, read-out: IC50 (Viability)", "method": "553 Sigma-Aldrich) for 48-72 h. For drug pulse assays, tightly synchronized parasites (1-1.5% parasitemia,\n554 0.2% final hematocrit) were added to the plates and incubated for 3 h. Drugs were removed and the\n555 parasitemia assessed in the trophozoite stage of the next cycle.\n557 Compounds were tested against a range of drug resistant field isolates and laboratory strains using a\n558 modified [3H]-hypoxanthine incorporation assay, as previously reported (46). Field isolates 7G8, Cam3.1,\n559 Dd2, K1, TM90C2B and NF54 were obtained from MR4 (www.beiresources.org).\n561 Mammalian cell culture experiments\n562 The HepG2 (Human hepatocyte carcinoma) cell line was procured from ATCC (American Type\n563 Culture Collection, Manassas, USA; HB-8065) and viability assessed using Cell Titer-GLO luminescent\n564 cell viability assay reagents (Promega, catalogue number: G7570) (47, 48). For the assay, 2000 cells/well\n565 were plated in 384-well plates 24 h prior to the experiment and incubated at 37°C in a CO2 incubator. The\n566 medium was removed and cells were treated with fresh medium containing either vehicle (0.5% DMSO)\n567 or serially diluted test compounds or doxorubicin (1.3 nM to 25 µM) in a final volume of 50 µl/well and\n568 further incubated for 72 h at 37°C in a CO2 incubator.\n569 were treated with 5 µl of 1% Triton X-100 (final assay conc. 0.1%). Following incubation, 25 µl of medium\n570 was discarded and 25 µl of Cell Titer-GLO reagent was added to each well and the plate was kept on a plate\n571 shaker for 15 min at 25°C with shaking at 300 rpm. Luminescence signals were measured in a Spectramax\n572 M5 reader (Molecular Devices).\n574 H1650 is a human lung cancer derived ATG7-null cell line (49) that can be used to assess effects on targets\n576 adenocarcinoma; bronchoalveolar carcinoma). Other cells lines used are: H460 (NCI-H460; human lung;\n577 carcinoma; large cell lung cancer; ATCC: HTB-177); and HCT116 (human colon; colorectal carcinoma;\n578 ATCC: CCL-247; Lot : 5056139). […]\n580 inhibitors and cell viability was assessed by comparing the ATP content in compound-treated wells with […]"}, "PfYRS": {"biological_target": "PfYRS (Plasmodium falciparum, UniProt Q8IAR7)", "sequence (Q8IAR7 entry or part of it)": "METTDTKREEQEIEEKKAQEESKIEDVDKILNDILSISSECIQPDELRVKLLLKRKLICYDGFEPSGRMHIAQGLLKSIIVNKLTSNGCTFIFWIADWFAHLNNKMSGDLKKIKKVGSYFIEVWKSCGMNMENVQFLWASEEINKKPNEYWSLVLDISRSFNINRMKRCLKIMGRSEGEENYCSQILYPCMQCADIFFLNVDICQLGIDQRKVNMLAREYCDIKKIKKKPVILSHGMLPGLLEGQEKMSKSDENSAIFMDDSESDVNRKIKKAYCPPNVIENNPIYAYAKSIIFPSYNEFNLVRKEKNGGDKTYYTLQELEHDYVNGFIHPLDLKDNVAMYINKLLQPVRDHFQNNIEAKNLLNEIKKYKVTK", "test": "Tyrosine acylation of cognate tRNATyr by PfYRS", "assay_type": "biochemical"}, "Solubility": {"test": "Solubility", "assay_type": "physicochemical"}},
  "data": [
    {"smiles": "Nc1ncnc2c1c(OC(F)F)nn2[C@@H]1O[C@H](COS(N)(=O)=O)[C@@H](O)[C@H]1O", "note": "[ML901]", "values": [
      {"measurement": "decreased sensitivity of PfYRSS234C transfectants", "setting": "[1]; Dd2 parent transfectants harboring PfYRSS234C", "value": 10, "unit": "fold"},
      {"measurement": "IC50", "setting": "[1]; Mutant E12 (PfYRSS234C)", "value": "22 ± 1", "unit": "nM"},
      {"measurement": "IC50", "setting": "[1]; Mutant F5 (PfYRSS234C)", "value": "22 ± 3", "unit": "nM"},
      {"measurement": "IC50", "setting": "[1]; Mutant G12 (PfYRSS234C)", "value": "20 ± 1", "unit": "nM"},
      {"measurement": "IC50", "setting": "[2]", "value": 56, "unit": "nM"},
      {"measurement": "IC50", "setting": "PfYRS", "value": 53000, "unit": "nM"},
      {"measurement": "solubility", "setting": "Solubility", "value": "> 200", "unit": "µM"}
    ]}
  ]
}
